Reference: patent publication US12071450B2, “Salts of conjugates for cancer therapy” (Biosight Ltd., priority 2015, dated 2024)
pIC50: −log10 of the molar value. Counter-ions that a name gives are not always drawn.

What was measured:
[1] = test system: L1210 leukemia cancer cells; assay: MTT proliferation assay, L1210 leukemia cancer cells; type: cell-based; settings: 72 hr incubation, formulated in saline, 6 replicates
Description: The L1210 leukemia cancer cells were grown in DMEM medium with 10% Donor Horse Serum, 1% Glutamine, 1% Non-essential Amino Acids, 0.1% Amphotericin, and 0.1% Gentamicin. Cells were diluted and seeded into 96-wells plate 2000 cells/ml, 400 cells/well, in a volume of 0.2 ml per well. The plates were incubated at 37° C. for 180 min. Following incubation, test substances were added at increasing concentrations from […] formulated in saline in 6 replicates each. The tested substances were Asp(Cytarabine).Acetate salt form, Asp(Cytarabine).hydrochloride salt form, Asp(Cytarabine).Methansulfonate salt form, Asp(Cytarabine).Benzenesulfonate salt form and Asp(Cytarabine).phosphate salt form. Test plates also included 6 replicate wells of saline as control. Plates were incubated at 37° C. for 72 hr prior to analysis. At the end of the exposure period, an MTT [3-(4,5-dimethylthiazole-2-yl)-2,5-diphenyl tetrazolium bromide] assay was performed. To each test well MTT at concentration of 5 mg/ml was added in a volume of 0.02 ml. Plates were incubated at 37° C. for 3 hr, then centrifuged at 3500 rpm for 6 minutes and the supernatants were aspirated. The pellets which contained MTT crystals were dissolved in 0.2 ml DMSO each. Absorbance was determined using ELISA reader at a wavelength of 570 nm.

[2] = test system: Molt-4, Human acute lymphoblastic leukemia; assay: MTT proliferation assay, Molt-4 cells; type: cell-based; settings: 3 replicates
[3] = test system: HL-60, Human promyelocytic leukemia; assay: MTT proliferation assay, HL-60 cells; type: cell-based; settings: 3 replicates
[4] = test system: CCRF-SB, Human acute lymphoblastic leukemia; assay: MTT proliferation assay, CCRF-SB cells; type: cell-based; settings: 3 replicates
[5] = test system: K562, Human chronic myelogenous leukemia; assay: MTT proliferation assay, K562 cells; type: cell-based; settings: 3 replicates
[6] = test system: CCRF-CEM, Human acute lymphoblastic leukemia; assay: MTT proliferation assay, CCRF-CEM cells; type: cell-based; settings: 3 replicates
[7] = Solubility in water and organic solvents; type: physicochemical
[8] = Stability (decomposition) in solvents; type: physicochemical; settings: rate is determined by heat and time

## NC(CC(=O)Nc1ccn([C@@H]2O[C@H](CO)C(O)C2O)c(=O)n1)C(=O)O (some centres unmarked) [Asp(Cytarabine)•Acetate salt form, Asp(Cytarabine).Acetate]
[1]
  pIC50: 6.94
[2]
  pIC50: 7.92
[3]
  pIC50: 6.58
[4]
  pIC50: 4.72
[5]
  pIC50: 6.45
[6]
  pIC50: 7.64

## Cl.NC(CC(=O)Nc1ccn([C@@H]2O[C@H](CO)C(O)C2O)c(=O)n1)C(=O)O (some centres unmarked) [Asp(Cytarabine)•hydrochloride salt form, Asp(Cytarabine).HCl]
[1]
  pIC50: 6.62
[7]; most organic solvents: acetonitrile, ethers, ketones, halogenated solvents
  solubility in organic solvents: insoluble
[7]; water
  solubility in water: soluble
[8]; DMSO and DMF
  stability in strong polar aprotic solvents: decompose
[8]; water
  stability in water: decompose

## Asp(Cytarabine).benzenesulfonate
[1]
  pIC50: 7.64

## Asp(Cytarabine).methanesulfonate
[1]
  pIC50: 8.70

## Asp(Cytarabine).phosphate [Asp(Cytarabine)•phosphate salt form]
[1]
  pIC50: 7.47
